Assay results reported in EP4356909A1, “1-(SULFONYL)-N-PHENYLPYRROLIDINE-2-CARBOXAMIDES DERIVATIVES AND USE THEREOF” (Selabtec Sciences, SLU, priority 2022, dated 2024).

Legend:
[1] = test system: NFATc activation in HEK 293T cells; experiment: NFATc activation, 3xNFAT-luc dual-luciferase reporter assay; type: cell-based, human; conditions: HEK 293T cells stimulated with ionomycin, PMA and CaCl2; compounds for 2 hours; at least at 100, 50 and 20 µM (Figure 1)
Experimental: To determine the effect of compounds of formula (I) on NFATc activation, HEK 293T cells were transfected with 3xNFAT-luc reporter gene and Renilla-luc plasmid as control of gene transfection. After 24 hours, to activate the cellular CN -NFATc signaling pathway, cells were stimulated with ionomycin (lo), PMA and CaCl2 for 4 h to raise intracellular concentration of calcium. As positive control of inhibition of CN activity, cells were treated with 1 µM of CsA 30 min prior to Io/PMA/CaCl2 stimulation. Then, cells were treated with compounds of formula (I) at several concentrations for 2 hours and light units analyzed following manufacture's protocol of the dual-luciferase reporter assay system (Figure 1, Functional effect of pair related structure compounds on NFATc activation).

RH4 = experiment: Proliferation assay, Methyl violet staining; type: cell-based; conditions: inhibition values; rhabdomyosarcoma cell line; 5 days of incubation; mean of 6 wells
Experimental: (§1) Compound INK-150.46 (or SLB-605) was assayed against several cancer cell lines in proliferation assays.
(§2) The measurements were taken using an in vitro test to measure cell growth based on Methyl violet staining after 5 days of incubation with the aforementioned drug or control vehicle (DMSO). The procedure was carried out in a 96-well plate. After 1 wash with phosphate-buffered saline (PBS), cells were stained for 20 minutes at room temperature with Methyl violet (0.5 % w/v in water). After 5 washes with PBS, and the addition of acetic acid (10% in water), plates were read in a spectrophotometer at 590 nm. All conditions were tested in 6 independent wells and results expressed as a mean of all replicates.

RD = experiment: Proliferation assay, Methyl violet staining; type: cell-based; conditions: inhibition values; rhabdomyosarcoma cell line; 5 days of incubation; mean of 6 wells
Experimental: as §1, §2

SKNBE2 = experiment: Proliferation assay, Methyl violet staining; type: cell-based; conditions: inhibition values; neuroblastoma cell line; 5 days of incubation; mean of 6 wells
Experimental: as §1, §2

SHSY5Y = experiment: Proliferation assay, Methyl violet staining; type: cell-based; conditions: inhibition values; neuroblastoma cell line; 5 days of incubation; mean of 6 wells
Experimental: as §1, §2

U2OS = experiment: Proliferation assay, Methyl violet staining; type: cell-based; conditions: osteosarcoma (OS) cell line; 5 days of incubation (Figure 7)
Experimental: as §1, §2

## Cc1c(Cl)cc(F)cc1S(=O)(=O)N1CCC[C@H]1C(=O)N(Cn1nnc2ccccc21)c1ccccc1 [INK-150.46, (S)-N-((1H-Benzo[d][1,2,3]triazol-1-yl)methyl)-1-((3-chloro-5-fluoro-2-methylphenyl)sulfonyl)-N-phenylpyrrolidine-2-carboxamide]
[1]
  NFATc activation: strongly inhibits NFATc activation
RH4
  Effect over RH4 (%): 78.1%
RD
  Effect over RD (%): 75%
SKNBE2
  Effect over SKNBE2 (%): 59.5%
SHSY5Y
  Effect over SHSY5Y (%): 48.8%
U2OS
  inhibitory effect over U2OS (proliferation): inhibitory effect
